# Laboratory results as given in patent US7074789B2, “Kinase inhibitors” (Amgen Inc., priority 1999, dated 2006).
# Legend:
# Format in all cases: biochemical
# [1] = molecular target: T1, Lck (Homo sapiens, UniProt P06239); assay: Kinase inhibition assay (33P transfer), Lck; settings: read-out: Lck-1
# T1 construct: Kinases are expressed as either kinase domains or full length constructs; made in house
# Summary of the method: (§1)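 33P-ATP transfer to coated synthetic polymer substrates; acid wash (0.5% H3PO4), scintillant, liquid scintillation count. Enzymes: His- or GST-fusion kinases from E. coli or High Five insect cells.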
# [2] = molecular target: T2, Zap-70 (Homo sapiens, UniProt P43403); assay: Kinase inhibition assay (33P transfer), Zap-70; settings: read-out: Zap-1
# T2 construct: Kinases are expressed as either kinase domains or full length constructs; made in house
# T2 sequence (P43403 1-619): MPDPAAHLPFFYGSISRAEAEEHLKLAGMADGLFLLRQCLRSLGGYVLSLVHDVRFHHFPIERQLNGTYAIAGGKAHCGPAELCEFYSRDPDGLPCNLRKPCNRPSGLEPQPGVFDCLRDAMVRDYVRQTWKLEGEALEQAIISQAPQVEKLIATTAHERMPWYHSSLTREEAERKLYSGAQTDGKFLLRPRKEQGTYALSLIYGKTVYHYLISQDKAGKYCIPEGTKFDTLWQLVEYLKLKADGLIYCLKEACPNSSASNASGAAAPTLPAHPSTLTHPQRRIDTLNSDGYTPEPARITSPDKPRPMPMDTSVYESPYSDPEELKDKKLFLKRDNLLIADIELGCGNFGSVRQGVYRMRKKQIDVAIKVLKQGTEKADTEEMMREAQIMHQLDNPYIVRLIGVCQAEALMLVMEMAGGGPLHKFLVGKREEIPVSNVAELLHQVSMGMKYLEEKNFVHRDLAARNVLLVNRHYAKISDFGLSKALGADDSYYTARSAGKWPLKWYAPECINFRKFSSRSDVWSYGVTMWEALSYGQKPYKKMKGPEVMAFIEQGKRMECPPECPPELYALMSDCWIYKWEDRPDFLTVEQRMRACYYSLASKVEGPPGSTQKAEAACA
# Summary of the method: as §1
# [3] = molecular target: T3, Itk (Homo sapiens, UniProt Q08881); assay: Kinase inhibition assay (33P transfer), Itk; settings: read-out: Itk-1
# T3 construct: Kinases are expressed as either kinase domains or full length constructs; made in house
# T3 sequence (Q08881 1-620): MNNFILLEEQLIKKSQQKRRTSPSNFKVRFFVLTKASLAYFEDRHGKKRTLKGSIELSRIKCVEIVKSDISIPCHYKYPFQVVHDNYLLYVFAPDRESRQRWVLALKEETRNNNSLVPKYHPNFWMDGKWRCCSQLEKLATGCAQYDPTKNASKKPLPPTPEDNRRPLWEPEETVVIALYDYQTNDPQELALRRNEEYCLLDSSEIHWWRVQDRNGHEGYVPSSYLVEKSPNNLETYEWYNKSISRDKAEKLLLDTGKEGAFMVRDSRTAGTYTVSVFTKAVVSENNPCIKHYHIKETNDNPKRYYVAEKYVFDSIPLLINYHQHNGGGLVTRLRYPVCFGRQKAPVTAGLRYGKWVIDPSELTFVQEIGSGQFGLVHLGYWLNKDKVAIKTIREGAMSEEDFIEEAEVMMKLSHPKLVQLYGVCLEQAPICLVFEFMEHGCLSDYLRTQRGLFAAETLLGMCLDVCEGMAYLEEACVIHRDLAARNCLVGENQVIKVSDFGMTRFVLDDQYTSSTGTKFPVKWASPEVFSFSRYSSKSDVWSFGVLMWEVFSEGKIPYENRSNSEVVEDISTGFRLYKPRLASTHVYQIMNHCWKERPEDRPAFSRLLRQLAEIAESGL
# Summary of the method: (§2)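 Each enzyme, purified to near homogeneity by affinity chromatography, was incubated with ATP carrying 33P and a substrate polymer fixed to the plate. Unbound label was removed with dilute phosphoric acid (0.5%) before adding scintillant and counting. Potency is given as the compound level cutting label uptake by 50%.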
# [4] = molecular target: T4, EGFR (Homo sapiens, UniProt P00533); assay: Kinase inhibition assay (33P transfer), EGFR; settings: Table 2, kinase inhibition class; read-out: EGFR-1
# T4 construct: Kinases are expressed as either kinase domains or full length constructs; made in house
# Summary of the method: as §2
# [5] = molecular target: T5, ErbB2 (Homo sapiens, UniProt P04626); assay: Kinase inhibition assay (33P transfer), ErbB2; settings: read-out: ErbB2-2
# T5 construct: Kinases are expressed as either kinase domains or full length constructs; made in house
# Summary of the method: as §2
# [6] = molecular target: T6, Kdr (Homo sapiens, UniProt P35968); assay: Kinase inhibition assay (33P transfer), Kdr; settings: read-out: KDR-1
# T6 construct: Kinases are expressed as either kinase domains or full length constructs; made in house
# Summary of the method: as §1
# [7] = molecular target: T7, Tek (Homo sapiens, UniProt Q02763); assay: Kinase inhibition assay (33P transfer), Tek; settings: read-out: Tek-1
# T7 construct: Kinases are expressed as either kinase domains or full length constructs; made in house
# Summary of the method: as §2
# [8] = molecular target: T8, c-Met (Homo sapiens, UniProt P08581); assay: Kinase inhibition assay (33P transfer), c-Met; settings: Table 2, kinase inhibition class; read-out: Met-1
# T8 construct: Kinases are expressed as either kinase domains or full length constructs; made in house
# Summary of the method: as §2
# [9] = molecular target: T9, AKT (Homo sapiens, UniProt Q9Y243); assay: Kinase inhibition assay (33P transfer), AKT; settings: Table 2, kinase inhibition class; read-out: AKT3-1
# T9 construct: Kinases are expressed as either kinase domains or full length constructs; made in house
# Summary of the method: as §1
# [10] = molecular target: T10, IGFR-1 (Homo sapiens, UniProt P08069); assay: Kinase inhibition assay, IGFR-1 (Table 2); settings: Table 2, kinase inhibition class
# T10 construct: Kinases are expressed as either kinase domains or full length constructs; made in house
# [11] = molecular target: T11, PDGFRB (Homo sapiens, UniProt P09619); assay: Kinase inhibition assay (33P transfer), PDGFRB; settings: read-out: PDGFRB-1
# T11 construct: Kinases are expressed as either kinase domains or full length constructs; made in house
# T4 sequence (P00533 25-1210, species assumed): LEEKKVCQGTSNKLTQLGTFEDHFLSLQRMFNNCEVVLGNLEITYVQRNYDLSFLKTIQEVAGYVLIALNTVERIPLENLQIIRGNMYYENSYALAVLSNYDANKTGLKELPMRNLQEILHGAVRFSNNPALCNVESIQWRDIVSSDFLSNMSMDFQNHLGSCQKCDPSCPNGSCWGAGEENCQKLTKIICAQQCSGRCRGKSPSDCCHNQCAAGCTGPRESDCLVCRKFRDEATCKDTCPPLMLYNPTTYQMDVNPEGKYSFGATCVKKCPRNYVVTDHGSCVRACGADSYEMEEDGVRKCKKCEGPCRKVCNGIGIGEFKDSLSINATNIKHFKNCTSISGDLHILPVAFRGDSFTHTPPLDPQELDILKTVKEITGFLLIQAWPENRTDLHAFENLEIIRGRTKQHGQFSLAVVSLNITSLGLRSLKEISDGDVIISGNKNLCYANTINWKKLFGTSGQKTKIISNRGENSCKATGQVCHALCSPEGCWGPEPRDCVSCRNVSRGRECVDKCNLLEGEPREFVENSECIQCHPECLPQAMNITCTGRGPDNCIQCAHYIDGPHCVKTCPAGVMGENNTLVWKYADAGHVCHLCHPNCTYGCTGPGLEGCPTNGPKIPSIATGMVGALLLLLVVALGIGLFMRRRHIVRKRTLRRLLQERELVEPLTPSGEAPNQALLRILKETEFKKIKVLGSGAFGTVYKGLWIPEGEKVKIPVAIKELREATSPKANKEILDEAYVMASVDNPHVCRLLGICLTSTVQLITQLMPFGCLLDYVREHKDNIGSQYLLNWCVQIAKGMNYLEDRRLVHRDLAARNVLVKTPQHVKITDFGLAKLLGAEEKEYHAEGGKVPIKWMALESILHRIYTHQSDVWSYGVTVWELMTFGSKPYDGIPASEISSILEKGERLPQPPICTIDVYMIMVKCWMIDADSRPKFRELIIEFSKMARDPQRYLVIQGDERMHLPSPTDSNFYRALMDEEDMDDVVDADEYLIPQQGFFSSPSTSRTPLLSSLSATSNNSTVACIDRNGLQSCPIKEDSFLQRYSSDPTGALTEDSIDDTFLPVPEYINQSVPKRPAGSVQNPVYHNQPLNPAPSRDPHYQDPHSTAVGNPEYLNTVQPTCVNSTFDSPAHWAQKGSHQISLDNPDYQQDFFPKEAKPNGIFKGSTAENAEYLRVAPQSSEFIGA
# T1 sequence (P06239 whole entry, species assumed, the tested form may be a part): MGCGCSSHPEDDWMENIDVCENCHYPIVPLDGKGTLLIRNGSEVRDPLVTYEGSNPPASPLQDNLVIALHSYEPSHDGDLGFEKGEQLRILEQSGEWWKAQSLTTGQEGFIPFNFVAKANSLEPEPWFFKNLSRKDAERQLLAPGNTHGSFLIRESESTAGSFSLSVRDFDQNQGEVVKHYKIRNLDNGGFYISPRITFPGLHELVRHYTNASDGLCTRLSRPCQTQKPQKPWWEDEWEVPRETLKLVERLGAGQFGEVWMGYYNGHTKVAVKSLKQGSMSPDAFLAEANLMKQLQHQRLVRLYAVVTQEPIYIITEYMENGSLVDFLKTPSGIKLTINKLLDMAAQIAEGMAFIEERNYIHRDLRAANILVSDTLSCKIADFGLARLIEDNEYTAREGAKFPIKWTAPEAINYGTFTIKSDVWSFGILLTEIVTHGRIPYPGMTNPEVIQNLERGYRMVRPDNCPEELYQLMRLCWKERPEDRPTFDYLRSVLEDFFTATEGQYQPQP
# T7 sequence (Q02763 23-1124, species assumed): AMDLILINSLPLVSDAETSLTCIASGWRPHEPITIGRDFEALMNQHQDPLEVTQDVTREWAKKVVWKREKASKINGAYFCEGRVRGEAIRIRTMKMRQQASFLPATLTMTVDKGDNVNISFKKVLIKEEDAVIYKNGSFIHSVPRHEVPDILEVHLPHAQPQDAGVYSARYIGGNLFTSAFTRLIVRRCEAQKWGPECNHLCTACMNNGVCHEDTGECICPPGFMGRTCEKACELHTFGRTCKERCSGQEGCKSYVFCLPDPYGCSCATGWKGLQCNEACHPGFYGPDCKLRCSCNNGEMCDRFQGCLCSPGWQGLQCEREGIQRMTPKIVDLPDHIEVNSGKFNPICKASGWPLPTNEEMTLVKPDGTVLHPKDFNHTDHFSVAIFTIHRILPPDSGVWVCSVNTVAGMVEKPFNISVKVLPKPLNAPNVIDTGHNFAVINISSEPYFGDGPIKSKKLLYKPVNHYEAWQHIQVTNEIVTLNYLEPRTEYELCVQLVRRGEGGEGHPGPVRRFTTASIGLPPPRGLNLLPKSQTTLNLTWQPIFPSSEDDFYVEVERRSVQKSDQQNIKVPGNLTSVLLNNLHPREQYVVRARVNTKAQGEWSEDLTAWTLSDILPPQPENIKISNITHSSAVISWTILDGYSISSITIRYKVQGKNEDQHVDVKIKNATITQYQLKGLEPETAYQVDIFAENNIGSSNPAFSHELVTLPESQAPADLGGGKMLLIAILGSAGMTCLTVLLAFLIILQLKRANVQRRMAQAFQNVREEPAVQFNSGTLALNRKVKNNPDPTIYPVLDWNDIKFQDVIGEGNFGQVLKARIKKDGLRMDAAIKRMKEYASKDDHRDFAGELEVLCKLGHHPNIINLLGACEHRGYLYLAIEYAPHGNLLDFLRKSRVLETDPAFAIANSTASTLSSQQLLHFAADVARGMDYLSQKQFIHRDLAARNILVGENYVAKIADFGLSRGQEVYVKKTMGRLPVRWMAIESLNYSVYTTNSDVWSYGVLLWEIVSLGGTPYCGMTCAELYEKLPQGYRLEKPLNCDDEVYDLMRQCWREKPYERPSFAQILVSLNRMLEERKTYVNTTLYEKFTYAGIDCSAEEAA
# T8 sequence (P08581 25-1390): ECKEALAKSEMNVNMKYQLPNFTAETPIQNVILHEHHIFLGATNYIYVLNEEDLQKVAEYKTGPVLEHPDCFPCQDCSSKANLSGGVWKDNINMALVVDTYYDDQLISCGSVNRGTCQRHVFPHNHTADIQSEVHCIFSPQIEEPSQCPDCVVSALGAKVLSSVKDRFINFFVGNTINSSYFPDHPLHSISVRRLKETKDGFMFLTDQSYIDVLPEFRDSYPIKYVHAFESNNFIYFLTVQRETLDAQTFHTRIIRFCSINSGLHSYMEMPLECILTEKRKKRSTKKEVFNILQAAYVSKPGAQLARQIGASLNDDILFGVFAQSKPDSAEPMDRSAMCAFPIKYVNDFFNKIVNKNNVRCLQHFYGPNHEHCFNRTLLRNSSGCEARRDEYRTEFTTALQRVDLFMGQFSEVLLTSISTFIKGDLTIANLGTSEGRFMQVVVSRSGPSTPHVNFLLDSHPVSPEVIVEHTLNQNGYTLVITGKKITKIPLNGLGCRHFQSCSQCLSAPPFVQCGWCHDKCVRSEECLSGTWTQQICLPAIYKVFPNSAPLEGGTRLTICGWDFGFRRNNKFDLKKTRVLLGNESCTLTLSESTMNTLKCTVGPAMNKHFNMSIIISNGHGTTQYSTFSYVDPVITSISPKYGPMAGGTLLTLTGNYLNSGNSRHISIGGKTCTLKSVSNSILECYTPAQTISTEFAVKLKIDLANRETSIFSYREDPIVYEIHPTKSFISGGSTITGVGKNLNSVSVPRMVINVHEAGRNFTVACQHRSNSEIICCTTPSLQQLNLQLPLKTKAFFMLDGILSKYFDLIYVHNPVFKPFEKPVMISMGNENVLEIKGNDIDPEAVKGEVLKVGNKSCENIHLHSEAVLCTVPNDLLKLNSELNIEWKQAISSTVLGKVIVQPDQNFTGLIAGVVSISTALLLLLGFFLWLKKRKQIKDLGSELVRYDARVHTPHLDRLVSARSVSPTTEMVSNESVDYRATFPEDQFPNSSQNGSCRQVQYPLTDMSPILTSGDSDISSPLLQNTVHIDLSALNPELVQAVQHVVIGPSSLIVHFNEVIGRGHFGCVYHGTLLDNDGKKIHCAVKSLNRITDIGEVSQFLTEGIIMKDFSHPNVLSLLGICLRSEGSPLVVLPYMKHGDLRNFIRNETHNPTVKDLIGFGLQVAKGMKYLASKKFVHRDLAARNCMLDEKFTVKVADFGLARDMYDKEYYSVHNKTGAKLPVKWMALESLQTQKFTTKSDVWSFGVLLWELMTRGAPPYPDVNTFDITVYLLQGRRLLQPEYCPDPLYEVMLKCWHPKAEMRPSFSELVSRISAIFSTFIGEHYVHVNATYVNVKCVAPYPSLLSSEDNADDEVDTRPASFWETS
# T9 sequence (Q9Y243 whole entry, the tested form may be a part): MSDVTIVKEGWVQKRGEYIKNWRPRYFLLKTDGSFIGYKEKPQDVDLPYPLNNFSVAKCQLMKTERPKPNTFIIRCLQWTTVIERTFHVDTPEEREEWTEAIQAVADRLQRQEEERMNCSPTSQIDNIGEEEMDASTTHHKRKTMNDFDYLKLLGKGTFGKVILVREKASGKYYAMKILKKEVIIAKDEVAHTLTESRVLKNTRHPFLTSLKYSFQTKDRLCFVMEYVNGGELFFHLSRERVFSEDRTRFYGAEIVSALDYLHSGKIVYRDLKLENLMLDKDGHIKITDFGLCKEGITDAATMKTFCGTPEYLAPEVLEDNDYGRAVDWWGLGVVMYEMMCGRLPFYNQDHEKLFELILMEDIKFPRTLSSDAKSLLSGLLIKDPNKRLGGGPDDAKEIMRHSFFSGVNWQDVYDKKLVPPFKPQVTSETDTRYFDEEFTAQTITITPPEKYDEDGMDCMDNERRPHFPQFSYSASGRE
SMILES,IC50 [1] [µM],IC50 [2] [µM],IC50 [3] [µM],IC50 [4] [µM],IC50 [5] [µM],IC50 [6] [µM],IC50 [7] [µM],IC50 [8] [µM],IC50 [9] [µM],IC50 [10] [µM],IC50 [11] [µM]
COc1cc(Nc2ncnc(-n3ncc(-c4ccccc4)c3N)n2)cc(OC)c1OC [Compound 522],0.954 to 5.72,> 10.7,0.954 to 5.72,5.72 to 8.34,8.34 to 10.7,5.72 to 8.34,8.34 to 10.7,5.72 to 8.34,> 10.7,0.954 to 5.72,5.72 to 8.34
CCN(CC)C(=O)C1CCCN(c2ncnc(Nc3cc(OC)c(OC)c(OC)c3)n2)C1 (stereo not drawn) [Compound 615],7.87 to 10.1,> 10.1,7.87 to 10.1,> 10.1,> 10.1,> 10.1,> 10.1,> 10.1,> 10.1,> 10.1,> 10.1
COC(=O)c1ccc(-c2cc(Nc3ncnc(Nc4cc(OC)c(OC)c(OC)c4)n3)[nH]n2)cc1 [Compound 523],< 0.838,> 9.42,7.33 to 9.42,0.838 to 5.03,7.33 to 9.42,> 9.42,> 9.42,< 0.838,> 9.42,< 0.838,> 9.42
COc1cc(Nc2ncnc(Nc3ccc(NS(=O)(=O)c4ccc([N+](=O)[O-])cc4)cc3)n2)cc(OC)c1OC [Compound 692],< 0.723,0.723 to 4.34,0.723 to 4.34,0.723 to 4.34,< 0.723,< 0.723,0.723 to 4.34,4.34 to 6.32,> 8.13,0.723 to 4.34,< 0.723
COc1cc(Nc2ncnc(-n3c(C)nc4ccccc43)n2)cc(OC)c1OC [Compound 691],1.02 to 6.12,> 11.5,6.12 to 8.92,6.12 to 8.92,> 11.5,< 1.02,> 11.5,1.02 to 6.12,> 11.5,< 1.02,< 1.02

# Next, values leading:
IC50 [1] [µM],IC50 [2] [µM],IC50 [3] [µM],IC50 [4] [µM],IC50 [5] [µM],IC50 [6] [µM],IC50 [7] [µM],IC50 [8] [µM],IC50 [9] [µM],IC50 [10] [µM],IC50 [11] [µM],SMILES
< 1.03,> 11.6,> 11.6,1.03 to 6.16,1.03 to 6.16,< 1.03,> 11.6,< 1.03,> 11.6,< 1.03,> 11.6,COc1ccc(Nc2ncnc(Nc3cc(-c4ccccc4)n[nH]3)n2)cc1OC [Compound 977]
6.69 to 8.6,> 8.6,4.58 to 6.69,> 8.6,4.58 to 6.69,6.69 to 8.6,> 8.6,6.69 to 8.6,> 8.6,6.69 to 8.6,> 8.6,COc1cc(Nc2ncnc(-n3c(NCc4nc5ccccc5[nH]4)nc4ccccc43)n2)cc(OC)c1OC [Compound 954]
< 1.01,> 11.4,> 11.4,1.01 to 6.07,1.01 to 6.07,1.01 to 6.07,8.85 to 11.4,> 11.4,> 11.4,1.01 to 6.07,< 1.01,COc1cc(Nc2ncnc(Nc3cccc(C(C)=O)c3)n2)cc(OC)c1OC [Compound 697]
0.991 to 5.95,> 11.2,5.95 to 8.68,0.991 to 5.95,0.991 to 5.95,0.991 to 5.95,> 11.2,< 0.991,> 11.2,< 0.991,> 11.2,COc1cc(C)c(Nc2ncnc(Nc3cc(-c4ccccc4)n[nH]3)n2)cc1OC [Compound 978]
